Experimental data: patent publication US20070123533A1, “New process for preparing an optically pure 2-morpholinol derivative” (SMITHKLINE BEECHAM CORPORATION, priority 2003, published 2007)
≈ marks a conversion by molar mass, not a printed value.

Experiments:
[1] = Solubility of the racemate in the chromatography eluent; type: physicochemical; details: organic solvent or mixture
Text: The selectivity obtained has a strong influence on process productivity. As illustrated in Example 3 below the addition of isopropanol to the acetonitrile mobile phase increased the selectivity over two-fold. The process productivity is almost proportional to [formula] but other parameters also have to be considered to select the best chromatographic conditions. The process is also influenced by the retention of the compounds, with tests showing the retention to be maximal at 2-3% isopropanol. However the solubility of the racemate is shown to increase with increasing isopropanol content allowing a more concentrated feed to be injected. […] Also from the standpoint of process operation robustness, since MCC involves continuous operation it is important to avoid any precipitation effects which could halt the system. Using a mobile phase containing isopropanol reduces the likelihood of precipitation occurring and is advantageous over a MCC system operating purely in 100% acetonitrile in which racemate feed and isolated enantiomers are less soluble. […]

[2] = Racemization of the pure enantiomer in heated solvents, optical purity followed over time; type: physicochemical; details: for Final OP (%): about 60-65° C. under reflux, starting OP >99.8%, about 20 g/L
Description: Pure (+)-(2S,3S)-2-(3-chlorophenyl)-3,5,5-trimethyl-2-morpholinol was tested with various solvents in order to optimize the racemization. Specifically, about 2 g of pure enantiomer ((+)(2S,3S)-2-(3-chlorophenyl)-3,5,5-trimethyl-2-morpholinol) were dissolved into 100 ml (total concentration of about 20 g/L) of solvent (see various solvents below) and heated up to about 60-65° C. under stirring (under reflux). The solution was sampled periodically in order to follow the kinetics of racemization.
Table 11 illustrates the Optical Purity of the racemization of the enantiomer in various solvents or solvent mixtures: […]

Final OP (%) ([2]; Acetonitrile/IPA (95/5), 20 hours) | Final OP (%) ([2]; Isopropanol, 20 hours) | Final OP (%) ([2]; Methanol, 2 hours) | Final OP (%) ([2]; Methanol/HCl, 2 hours) | Final OP (%) ([2]; Water/HCl, 2 hours) | racemization (in words) ([2]; acidic aqueous solvent) | racemization conversion ([2]; methanol, after 2 hours) | racemization conversion ([2]; pure isopropanol, after 20 hours) | Compound | solubility ([1]; in acetonitrile/isopropanol 95/5 mixture) | solubility ([1]; in pure acetonitrile)
 |  |  |  |  |  |  |  | C[C@H]1NC(C)(C)CO[C@]1(O)c1cccc(Cl)c1 (racemic) [racemate, (+/−)-(2R*, 3R*)-2-(3-chlorophenyl)-3,5,5-trimethyl-2-morpholinol] | 30 mg/mL (≈ 117 mM) | 22.5 mg/mL (≈ 88 mM)
92.8% | 84.8% | 95.3% | 97.4% | >99.8% | No racemization is observed | 10% | 30% | C[C@@H]1NC(C)(C)CO[C@@]1(O)c1cccc(Cl)c1 [(+)-(2S,3S)-2-(3-chlorophenyl)-3,5,5-trimethyl-2-morpholinol] |  | 
